We go through 20 compounds from patent US12522607B2, “Substituted pyrazolo[3,4-d]pyrimidines as wee-1 inhibitors” (WIGEN BIOMEDICINE TECHNOLOGY (SHANGHAI) CO., LTD., priority 2020, dated 2026).

In one assay the test system is HT29 cells. Put plainly: Antiproliferative activity against HT29 cells (Cell Titer-Lumi, ATP content). It is filed as cell-based. The note with it: Homo sapiens, HT-29, 72 after compound addition, read-out: HT-29 cells Anti-proliferative activity (IC50 for the inhibition against HT-29 cell growth). The method, boiled down:
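3000 cells per well, allowed to adhere overnight, then exposed to a gradient dilution of compound for 72 (units as printed). Cellular ATP read by luminescence (Cell Titer-Lumi) as a growth measure; IC50 for growth inhibition calculated.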

Another assay concerns the target T1, Wee-1 kinase (Homo sapiens, UniProt P30291).
T1 construct: purchased Invitrogen
As to the kind of experiment: Inhibitory activity against Wee-1 kinase (Lanthra Screen Wee-1 kinase kit, Tracer 178). It is filed as binding. The note with it: Wee-1 kinase 5 nM, Tracer 178 50 nM, 1 h room temperature. The method, boiled down:
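LanthaScreen binding format: Wee-1 kinase (5 nM final) with Eu-anti-GST antibody (2 nM final) and kinase Tracer 178 (50 nM final), compounds serially diluted in DMSO. 1 h at room temperature before reading. IC50 relative to DMSO control.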

The IC50 is the concentration needed to halve the response being measured.

T1 sequence (P30291 whole entry): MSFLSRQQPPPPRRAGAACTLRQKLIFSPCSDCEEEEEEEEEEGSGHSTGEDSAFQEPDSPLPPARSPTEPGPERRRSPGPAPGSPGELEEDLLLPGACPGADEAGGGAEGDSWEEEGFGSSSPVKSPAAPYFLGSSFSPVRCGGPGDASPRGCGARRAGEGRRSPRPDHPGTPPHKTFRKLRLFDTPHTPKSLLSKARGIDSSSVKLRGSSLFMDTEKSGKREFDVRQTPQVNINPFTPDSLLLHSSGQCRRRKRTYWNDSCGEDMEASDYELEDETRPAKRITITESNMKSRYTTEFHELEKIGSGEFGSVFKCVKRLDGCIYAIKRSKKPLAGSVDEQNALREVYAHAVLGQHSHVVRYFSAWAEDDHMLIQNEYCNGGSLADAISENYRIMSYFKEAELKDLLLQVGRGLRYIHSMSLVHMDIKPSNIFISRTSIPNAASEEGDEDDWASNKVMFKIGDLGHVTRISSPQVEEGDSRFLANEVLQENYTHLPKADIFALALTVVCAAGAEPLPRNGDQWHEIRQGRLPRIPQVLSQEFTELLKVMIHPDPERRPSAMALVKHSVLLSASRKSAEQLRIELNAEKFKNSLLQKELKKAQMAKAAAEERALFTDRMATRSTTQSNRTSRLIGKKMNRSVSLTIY

In the case of `CCn1c(=O)c2cnc(Nc3ccc(C4CCN(C)CC4)c(C)c3)nc2n1-c1ccc(=O)n(C(C)C)c1` [Compound 301], the half-maximal inhibitory concentration (IC50) with HT29 cells is not above 1000 nM; on Wee-1 kinase it was not above 30 nM.

For `CCn1c(=O)c2cnc(Nc3ccc4c(c3)CN(C)CC43CC3)nc2n1-c1ccc(=O)n(C(C)C)c1` [Compound 302], the half-maximal inhibitory concentration (IC50) with HT29 cells was not above 1000 nM; against Wee-1 kinase it was not above 30 nM.

In the case of `CC(C)n1cc(-n2c3nc(Nc4ccc(N5CCN(C)CC5)cc4)ncc3c(=O)n2C(C)C)ccc1=O` [Compound 303], the half-maximal inhibitory concentration (IC50) in the assay with HT29 cells is not above 1000 nM; on Wee-1 kinase it was not above 30 nM.

For the compound `Cc1cc(Nc2ncc3c(=O)n(C(C)C)n(-c4ccc(=O)n(C(C)C)c4)c3n2)ccc1N1CCN(C)CC1` [Compound 304], the IC50 with HT29 cells was not above 1000 nM; against Wee-1 kinase, not above 30 nM.

Take `Cc1cc(Nc2ncc3c(=O)n(C(C)C)n(-c4ccc(=O)n(C(C)C)c4)c3n2)ccc1C1CCN(C)CC1` [Compound 305]: the IC50 in the assay with HT29 cells was not above 1000 nM; against Wee-1 kinase, not above 30 nM.

Turning to `CC(C)n1cc(-n2c3nc(Nc4ccc5c(c4)CN(C)CC54CC4)ncc3c(=O)n2C(C)C)ccc1=O` [Compound 306], the half-maximal inhibitory concentration (IC50) with HT29 cells was not above 1000 nM; at Wee-1 kinase it was not above 30 nM.

On to `CC(C)n1cc(-n2c3nc(Nc4ccc(N5CCN(C)CC5)cc4)ncc3c(=O)n2C2CC2)ccc1=O` [Compound 307], for which the figures for the IC50 in the assay with HT29 cells and on Wee-1 kinase were not above 1000 nM and not above 30 nM, respectively.

`Cc1cc(Nc2ncc3c(=O)n(C4CC4)n(-c4ccc(=O)n(C(C)C)c4)c3n2)ccc1N1CCN(C)CC1` [Compound 308]: the IC50 in the assay on HT29 cells was not above 1000 nM; against Wee-1 kinase, not above 30 nM.

Regarding `Cc1cc(Nc2ncc3c(=O)n(C4CC4)n(-c4ccc(=O)n(C(C)C)c4)c3n2)ccc1C1CCN(C)CC1` [Compound 309], the half-maximal inhibitory concentration (IC50) in the assay on HT29 cells is not above 1000 nM; at Wee-1 kinase, not above 30 nM.

With `CC(C)n1cc(-n2c3nc(Nc4ccc5c(c4)CN(C)CC54CC4)ncc3c(=O)n2C2CC2)ccc1=O` [Compound 310], the results for the IC50 with HT29 cells and on Wee-1 kinase were not above 1000 nM and not above 30 nM, respectively.

Take `C=CCn1c(=O)c2cnc(Nc3ccc(N4CCN(C)CC4)c(OC)c3)nc2n1-c1cc(F)c(=O)n(C(C)C)c1` [Compound 311]: the IC50 was not above 1000 nM in the assay with HT29 cells and not above 30 nM on Wee-1 kinase.

Turning to `C=CCn1c(=O)c2cnc(Nc3ccc(N4CCN(C)CC4)c(C)c3)nc2n1-c1cc(F)c(=O)n(C(C)C)c1` [Compound 312], the IC50 in the assay on HT29 cells is not above 1000 nM; on Wee-1 kinase, not above 30 nM.

Consider `C=CCn1c(=O)c2cnc(Nc3ccc(C4CCN(C)CC4)c(C)c3)nc2n1-c1cc(F)c(=O)n(C(C)C)c1` [Compound 313], for which the concentration for half-maximal inhibition (IC50) is not above 1000 nM in the assay on HT29 cells and not above 30 nM against Wee-1 kinase.

`C=CCn1c(=O)c2cnc(Nc3ccc4c(c3)CN(C)CC43CC3)nc2n1-c1cc(F)c(=O)n(C(C)C)c1` [Compound 314]: the IC50 was not above 1000 nM in the assay on HT29 cells and not above 30 nM on Wee-1 kinase.

On to `CCn1c(=O)c2cnc(Nc3ccc(N4CCN(C)CC4)cc3)nc2n1-c1cc(F)c(=O)n(C(C)C)c1` [Compound 315], for which the values for the IC50 with HT29 cells and against Wee-1 kinase were not above 1000 nM and not above 30 nM, respectively.

Turning to `CCn1c(=O)c2cnc(Nc3ccc(N4CCN(C)CC4)c(C)c3)nc2n1-c1cc(F)c(=O)n(C(C)C)c1` [Compound 316], the figures for the half-inhibitory concentration (IC50) in the assay with HT29 cells and against Wee-1 kinase were not above 1000 nM and not above 30 nM, respectively.

With `CCn1c(=O)c2cnc(Nc3ccc(C4CCN(C)CC4)c(C)c3)nc2n1-c1cc(F)c(=O)n(C(C)C)c1` [Compound 317], the results for the IC50 with HT29 cells and against Wee-1 kinase were not above 1000 nM and not above 30 nM, respectively.

As to `CCn1c(=O)c2cnc(Nc3ccc4c(c3)CN(C)CC43CC3)nc2n1-c1cc(F)c(=O)n(C(C)C)c1` [Compound 318], the 50% inhibitory concentration (IC50) in the assay with HT29 cells is not above 1000 nM; against Wee-1 kinase, not above 30 nM.

For the compound `CC(C)n1cc(-n2c3nc(Nc4ccc(N5CCN(C)CC5)cc4)ncc3c(=O)n2C(C)C)cc(F)c1=O` [Compound 319], the half-inhibitory concentration (IC50) in the assay with HT29 cells was not above 1000 nM; on Wee-1 kinase it was not above 30 nM.

Consider `Cc1cc(Nc2ncc3c(=O)n(C(C)C)n(-c4cc(F)c(=O)n(C(C)C)c4)c3n2)ccc1N1CCN(C)CC1` [Compound 320], for which the half-inhibitory concentration (IC50) in the assay with HT29 cells is not above 1000 nM; against Wee-1 kinase, not above 30 nM.
